# “Also recorded” adds a separate entry of the source. Like-named read-outs stand apart in the source and are kept apart here.
# B1: MIG: CXCR3 ligand, C-X-C chemokine (protein, UniProt Q07325 23-125, looked up)
# C-X-C motif chemokine 9: TPVVRKGRCSCISTNQGTIHLQSLKDLKQFAPSPSCEKIEIIATLKNGVQTCLNPDSADVKELIKKWEKQVSQKKKQKNGKKHQKKKVLKVRKSQRSRQKKTT
# B2: I-TAC: CXCR3 ligand, C-X-C chemokine (protein, UniProt O14625 22-94, looked up)
# C-X-C motif chemokine 11: FPMFKRGRCLCIGPGVKAVKVADIEKASIMYPSNNCDKIEVIITLKENKGQRCLNPKSKQARLIIKKVERKNF
# B3: RANTES: C-C chemokine which binds to CCR5 and CCR1 (protein, UniProt P13501 24-91, looked up)
# C-C motif chemokine 5: SPYSSDTTPCCFAYIARPLPRAHIKEYFYTSGKCSNPAVVFVTRKNRQVCANPEKKWVREYINSLEMS
# Tests used:
# HIV-1BaL [1] = experiment: HIV-1BaL replication in monocyte-derived macrophages (MDM), RT activity in supernatants; type: cell-based; details: for increase of HIV-1BaL replication in MDM by exogenous chemokine, mean over donors: IL-8: 17 donors, GRO-α: 5 donors
# Procedure: (§1) HIV-1 Infection of MDM and PBL: For each experiment, multiple wells of MDM or PBL were infected with equal RT counts of HIV-1 (30–300×10^6 CPM of RT used per 10^5 cells). This amount of CPM of RT activity per cell corresponds to a multiplicity of infection (MOI) of between 0.01 and 0.1 as determined by titration on HOS-CD4-CCR5 and CEM-SS cell lines and quantitation of proviral DNA in PBMC 24 h after infection. MDM were cultured for 3 d prior to infection, washed after an overnight incubation with the virus, and cultured in DME+10% FBS. PHA-activated PBL were washed and incubated in RPMI+10% FBS+IL-2 (40 U/ml) overnight. CD8+cells were depleted with magnetic Dynabeads® M-450 CD8 according to the manufacturer's instructions (Dynal, Lake Success, N.Y.). CD8-depleted PBL were then incubated with HIV-1 for 4 h, washed and incubated in media +IL-2. A portion of the media (25%) was removed from the MDM and PBL supernatants and replaced twice weekly.
# HIV-1BRU [2] = experiment: HIV-1BRU replication in PHA-activated PBL / T lymphocytes, RT activity in supernatants; type: cell-based; details: for increase of HIV-1BRU replication in PBL by exogenous chemokine, mean over donors: IL-8: 5 donors, CD8-depleted PBL, GRO-α: n=7, p=0.027
# Procedure: as §1
# MDM = experiment: MTT assay of cellular viability, proliferation and activation in infected MDM; type: cell-based, human
# Procedure: FIG. 3. […] MDM were treated as in FIGS. 1 and 2, and RT activity was measured every three to four days. MDM were also analyzed on day 13 by MTT assay (a measure of cellular viability, proliferation, and activation). Viability and activation was changed by less than 20% at all of the doses evaluated. For each treatment, viral replication was normalized against viability (RT activity/MTT assay) and then expressed relative to the control (no treatment). Data shown are the mean of three experiments;
# In a preferred embodiment, the inhibitor is SB225002, a small molecular weight inhibitor that is an antagonist of IL-8 binding to CXCR2. In an alternate preferred embodiment, the inhibitor is antileukinate, a synthetic peptide inhibitor that interferes with both IL-8 and GRO-α binding to receptors. […] Infection of PBL with HIV-1BRU was inhibited by both the small molecule inhibitor, SB225002 (FIG. 29A), and the peptide, antileukinate (FIG. 29B). […] Cellular viability, proliferation, and activation were also analyzed in the infected cells by performing an MTT assay. […] Similarly, doses of antileukinate up to 10^−4 M in PBL and 10^−6 M in MDM reduced cellular viability by not more than 20%, and doses as low as 10^−8 M were effective at inhibiting HIV-1 replication. […]
# PBL = type: cell-based, human
# Text: In a preferred embodiment, the inhibitor is SB225002, a small molecular weight inhibitor that is an antagonist of IL-8 binding to CXCR2. In an alternate preferred embodiment, the inhibitor is antileukinate, a synthetic peptide inhibitor that interferes with both IL-8 and GRO-α binding to receptors. […] Infection of PBL with HIV-1BRU was inhibited by both the small molecule inhibitor, SB225002 (FIG. 29A), and the peptide, antileukinate (FIG. 29B). […] Cellular viability, proliferation, and activation were also analyzed in the infected cells by performing an MTT assay. […] Similarly, doses of antileukinate up to 10^−4 M in PBL and 10^−6 M in MDM reduced cellular viability by not more than 20%, and doses as low as 10^−8 M were effective at inhibiting HIV-1 replication. […] The mean decreases in HIV-1BaL replication in MDM were 4.0±1.3 for 1000 nM SB225002 (p=0.019) and 2.6±0.6 for 10^−6 M antileukinate (p=0.002) relative to controls.
# GRO-α production by MDM = type: cell-based, human
# HIV-1BaL [3] = experiment: HIV-1BaL replication in activated (CD8-depleted) PBL, RT activity; type: cell-based; details: IL-8: 11 donors; GRO-α: n=6
# Procedure: as §1
# HIV-1BRU [4] = experiment: HIV-1BRU (X4) infection of MDM, RT activity; type: cell-based; details: MDM from multiple donors
# Procedure: as §1
# HIV-1 = details: R5 and X4 isolates of HIV-1 and HIV-2
# Procedure: Reverse Transcriptase (RT) Assay: HIV replication was determined by quantification of the RT activity present in the supernatants using a poly(A)-oligo(dT) template primer as previously described. […] RT activity was assayed using ^32P-labeled deoxythymidine triphosphate incorporated in DNA bound to DE81 paper (Whatman) and quantified using either the Series 400 PhosphorImager and ImageQuant® software (Molecular Dynamics, Sunnyvale, Calif.) or a Betascope radioisotope imaging system. RT activity is reported as phosphoimager counts except when labeled “counts” to signify beta counts.
# IL-8 promoter = IL-8 promoter CAT reporter in transfected U937 cells; type: cell-based, human; details: Tat co-transfection alone, or TNF-α 1 ng/ml alone
# Procedure: Transfection of the U937 Promonocyte Cell Line: U937 cells were transfected by the DEAE-dextran method with 1 μg of HIV-1 Tat (pCG-Tat1) or control vector (pCG) and 10 μg of a plasmid containing the chloramphenicol acetyl transferase (CAT) reporter gene downstream of either sequence which lacks eukaryotic promoter and enhancer sequences (pCAT-Basic, Promega, Madison, Wis.), nucleotides −254 to +19 of the IL-8 promoter (pCAT-IL-8), or the HIV-1-LTR. The cells were either left untreated or treated with TNF-α (1 ng/ml) at 24 hours after transfection and harvested 48 hours after transfection. CAT activity was quantified and normalized for the amount of protein. Values near 6000 represent complete acetylation of chloramphenicol (100%).
# CD14+ monocytes = experiment: Intracellular IL-8 staining of PBMC (flow cytometry); type: cell-based, human; details: staining after 6 hours; control monocytes 10%
# Procedure: Intracellular Cytokine Staining: PBMC were collected as described above and cultured in RPMI+10% FBS. The next day, PBMC were treated for 6 h with monensin (GolgiStop™, PharMingen) and incubated with virus or TNF-α. PBMC were then collected and stained for the presence of intracellular IL-8 and various cell surface markers according to the manufacturer's instructions (PharMingen). Adherent cells were collected by incubation in PBS+10 mM EDTA for 30 min at 4° C. PBMC (both adherent and non-adherent cells) were incubated in staining buffer (DPBS+1% FBS+0.09% sodium azide) with mouse IgG for 20 min at 4° C. to block non-specific binding of IgG to target cells. PBMC were then washed with staining buffer and stained for cell surface antigens for 30 min at 4° C. using R-phycoerythrin (PE)-conjugated mouse anti-human CD4 (PE-CD4) or CD14 (PE-CD14) monoclonal antibodies or PE-mouse IgG1, κ isotype control immunoglobulin (PharMingen). After two washes with staining buffer, PBMC were fixed and permeabilized with Cytofix/Cytoperm (PharMingen). PBMC were washed twice in Perm/Wash solution and then stained with either fluorescein isothiocyanate (FITC)-conjugated mouse anti-human IL-8 monoclonal antibody or FITC-mouse IgG2a, κ immunoglobulin isotype standard (PharMingen). Analysis of cell staining was performed using an EPICS Elite cell sorter (Beckman-Coulter, Fullerton, Calif.). […]
# monocytes = experiment: Intracellular GRO staining of PBMC (flow cytometry); type: cell-based, human; details: staining after 6 hours
# Procedure: Intracellular cytokine staining: PBMC were collected as described above and cultured in RPMI+10% FBS. The next day, PBMC were treated for 6 h with monensin (GolgiStop™, PharMingen) and incubated with virus, viral proteins, or TNF-α as indicated in the figure legend. PBMC were then collected and stained for the presence of intracellular GRO according to the manufacturer's instructions (PharMingen). Adherent cells were collected by incubation in PBS+10 mM EDTA for 30 min at 4° C. PBMC (both adherent and non-adherent cells) were then incubated in staining buffer (DPBS+1% FBS+0.09% sodium azide) with mouse IgG for 20 min at 4° C. to block non-specific binding of IgG to target cells. After two washes with staining buffer, PBMC were fixed and permeabilized with Cytofix/Cytoperm (PharMingen). PBMC were washed twice in Perm/Wash solution and then stained with either R-phycoerythrin (PE)-conjugated mouse anti-human GRO monoclonal antibody (GRO-PE) or PE-mouse IgG1, κ isotype control immunoglobulin (PharMingen). Analysis of cell staining was performed using an EPICS Elite cell sorter (Beckman-Coulter, Fullerton, Calif.). The monocyte and lymphocyte subpopulations were gated according to the pattern of forward scatter and side scatter.
# IL-8 production by MDM = IL-8 production by MDM (ELISA of supernatants); details: added prior to exposure to HIV-1
molecule,measurement,setting,value
"O=C(Nc1ccc([N+](=O)[O-])cc1O)Nc1ccccc1Br [SB225002, N-(2-hydroxy-4-nitrophenyl)-N′-(2-bromophenyl)urea, reference compound]",mean decrease in HIV-1BaL replication in MDM relative to controls,"HIV-1BaL [1]; 1000 nM, p=0.019",4.0±1.3
same,"HIV replication in MDM, effect of inhibitor","HIV-1BaL [1]; RT activity normalized against MTT, relative to no treatment, mean of three experiments",significantly decrease HIV replication
same,"HIV-1BRU infection/replication in PBL, effect of inhibitor","HIV-1BRU [2]; treated every three days from one day before infection, RT activity days 3, 6, 9",decreases HIV-1 replication; also recorded: inhibited
same,"cellular viability (MTT), effect of the doses used",MDM,did not negatively affect cellular viability
same,"cellular viability (MTT), effect of the doses used",PBL,did not negatively affect cellular viability
O=c1c(-c2ccc(O)cc2)coc2cc(O)cc(O)c12 [genistein],"HIV-1BRU-induced GRO-α production by MDM, sensitivity to inhibitor",GRO-α production by MDM,sensitive
CO[C@H]1[C@@H](OC)C[C@H](C)[C@@H](OC)C2=CC(=O)C=C(NC(=O)/C(C)=C/C=C\[C@H](OC)[C@@H](OC(N)=O)/C(C)=C/[C@@H]1C)C2=O [herbimycin A],"HIV-1BRU-induced GRO-α production by MDM, sensitivity to inhibitor",GRO-α production by MDM,sensitive
"GRO-α: recombinant C-X-C chemokine growth-regulated oncogene-alpha, ligand of CXCR2","HIV-1BaL replication in MDM, effect of exogenous chemokine",HIV-1BaL [1],augmented
same,"increase of HIV-1BaL replication in MDM by exogenous chemokine, mean over donors",HIV-1BaL [1],14 fold
same,"increase of HIV-1BRU replication in PBL by exogenous chemokine, mean over donors",HIV-1BRU [2],2.4 fold
same,"increase of HIV-1BaL replication in PBL by exogenous chemokine, mean over donors",HIV-1BaL [3],5 fold
same,susceptibility of MDM to productive infection with X4 HIV (HIV-1BRU) with exogenous chemokine,HIV-1BRU [4],does not confer susceptibility to productive infection with X4 HIV on MDM
same,"replication of other isolates tested, effect of exogenous chemokine",HIV-1,stimulated the replication of all isolates tested
"IL-8: recombinant human IL-8, C-X-C chemokine","HIV-1BaL replication in MDM, effect of exogenous chemokine",HIV-1BaL [1],augmented
same,"increase of HIV-1BaL replication in MDM by exogenous chemokine, mean over donors",HIV-1BaL [1],6.2 fold
same,"increase of HIV-1BRU replication in PBL by exogenous chemokine, mean over donors",HIV-1BRU [2],1.7 fold
same,doses that stimulated viral replication,"HIV-1BRU [2]; PHA-activated, CD8-depleted PBL (FIG. 8C)",exceeding 5 ng/ml
same,"increase of HIV-1BaL replication in PBL by exogenous chemokine, mean over donors",HIV-1BaL [3],4.8 fold
same,susceptibility of MDM to productive infection with X4 HIV (HIV-1BRU) with exogenous chemokine,HIV-1BRU [4],does not confer susceptibility to productive infection with X4 HIV on MDM
same,"replication of other isolates tested, effect of exogenous chemokine",HIV-1,stimulated the replication of all other isolates tested
"IP-10: CXCR3 ligand, C-X-C chemokine","HIV-1BaL replication in MDM, effect of exogenous chemokine",HIV-1BaL [1],stimulation
same,"HIV-1BRU replication in peripheral blood lymphocytes, effect of exogenous chemokine",HIV-1BRU [2],stimulation
SDF-1α,"GRO-α production by MDM, effect of treatment with the agent alone",GRO-α production by MDM,not produced
TNF-α,"IL-8 promoter activity, effect of single stimulus",IL-8 promoter,activated
same,CD14+ monocytes in which IL-8 was present,CD14+ monocytes,> 90%
same,monocytes in which GRO was present,monocytes,large percentage of monocytes
polymixin B,"HIV-1BRU-induced GRO-α production by MDM, sensitivity to inhibitor",GRO-α production by MDM; supernatants 20 hours after exposure to virus,did not prevent the HIV-1BRU-induced increases in GRO-α
same,"HIV-induced IL-8 production by MDM, effect of antibody or agent",IL-8 production by MDM,did not prevent the HIV-induced increase in IL-8 production
B1,"HIV-1BRU replication in peripheral blood lymphocytes, effect of exogenous chemokine",HIV-1BRU [2],stimulation
B2,"HIV-1BRU replication in peripheral blood lymphocytes, effect of exogenous chemokine",HIV-1BRU [2],stimulation
B3,"GRO-α production by MDM, effect of treatment with the agent alone",GRO-α production by MDM,"nor RANTES, which binds to CCR5 and CCR1, was able to stimulate GRO-α production"

# Reference: patent publication US7052676B2, “Methods for inhibition of HIV replication using a small molecule inhibitor” (priority 2000, dated 2006)
